Test results as given in US4439434A, “Cephalosporin derivative and pharmaceutical composition containing the derivative” (Kureha Kagaku Kogyo Kabushiki Kaisha, priority 1981, dated 1984).
Converted amounts (≈) assume the structure as drawn.

Columns and labels:
Lactobacillus bifidus = assay: Effect on the intestinal bacterial colonies: Lactobacillus bifidus in feces; assay type: in vivo; settings: mice, oral 500 mg/kg/day for two consecutive days, feces one day after administration
Experimental: (§1) Each of the cephalosporin derivatives of the invention prepared in Examples 1 to 10 was orally administered to mice (one group consisting of five female ICR mice of 6-week-old) for two consecutive days at a dose of 500 mg/kg/day.
(§2) Before and one day after the administration, feces of each mouse were collected and diluted with an anaerobic diluent (phosphoric buffer solution) of 100 times volume and the diluted feces were ground. 0.1 ml of the diluted and ground feces was smeared on each culture medium shown in Table 1 and cultured aerobically or anaerobically (according to the anaerobic glove box method) under each condition shown in Table 1 and the number of each bacterium shown in Table 1 was counted.
BS agar anaerobic, 37° C.,

Pseudomonas aeruginosa = assay: Effect on the intestinal bacterial colonies: Pseudomonas aeruginosa in feces; assay type: in vivo; settings: mice, oral 500 mg/kg/day for two consecutive days, feces one day after administration
Experimental: as §1, §2
NAC agar aerobic, 37° C.,

Escherichia coli = assay: Effect on the intestinal bacterial colonies: Escherichia coli in feces; assay type: in vivo; settings: mice; for Logarithmic value of the number of bacterial cells per one g of feces, E. coli: oral 500 mg/kg/day for two consecutive days, feces one day after administration
Experimental: as §1, §2
DHL agar aerobic, 37° C.,

Streptococcus spp. = assay: Effect on the intestinal bacterial colonies: Streptococcus spp. in feces; assay type: in vivo; settings: mice, oral 500 mg/kg/day for two consecutive days, feces one day after administration
Experimental: as §1, §2
TATAC agar aerobic, 37° C.,

[1] = tested on: Lactobacillus acidophilus; assay: Effect on the intestinal bacterial colonies: Lactobacillus acidophilus in feces; assay type: in vivo; settings: mice; for Logarithmic value of the number of bacterial cells per one g of feces, L. acidophilus: oral 500 mg/kg/day for two consecutive days, feces one day after administration
Experimental: as §1, §2
Lactobacillus acidophilus
LBS agar anaerobic, 37° C.,

Bacteroides = assay: Effect on the intestinal bacterial colonies: Bacteroides in feces; assay type: in vivo; settings: mice, oral 500 mg/kg/day for two consecutive days, feces one day after administration
Experimental: as §1, §2
Bacteroides NBGT agar anaerobic, 37° C.,

[2] = tested on: Staphylococcus aureus IAM 1011; assay: Antibacterial activity (MIC, agar plate) against Staph. aureus; assay type: cell-based; settings: Staphylococcus aureus IAM 1011, Mueller-Hinton agar, 37° C., 18 to 24 hours; unit assumed
Experimental: (§3) Antibacterial activity of each of the cephalosporin derivatives of the invention prepared in Examples 1 to 10 was examined against the following two bacteria according to the standard method of Japan Society of Chemitherapy: Escherichia coli IFO 12734 and Staphylococcus aureus IAM 1011.
(§4) Each bacterial strain was inoculated into the Mueller-Hinton's culture medium and cultured at 37° C. for 18 to 48 hours. The cultured medium was diluted so as to contain 1×10^6 cells of the bacteria per one ml, and the obtained medium was used as the bacterial specimen.
(§5) Agar plates were prepared by adding one part by weight of each solution of the cephalosporin derivative of the invention at a predetermined concentration to nine parts by weight of Mueller-Hinton's culture medium.
(§6) A loopful amount of the bacterial specimen prepared above was smeared to make a streak of about 2 cm on each agar plate prepared above and cultured at 37° C. for 18 to 24 hours.
(§7) The minimum concentration for completely inhibiting proliferation of the bacteria (referred to as MIC) was determined.

[3] = tested on: Escherichia coli IFO 12734; assay: Antibacterial activity (MIC, agar plate) against E. coli; assay type: cell-based; settings: Escherichia coli IFO 12734, Mueller-Hinton agar, 37° C., 18 to 24 hours; unit assumed
Experimental: as §3, §4, §5, §6, §7

[4] = tested on: Staphylococcus aureus IAM 1011; assay: Activation by rat liver homogenate (S-9 mix), proliferation-inhibiting circle, penicillin cup method; assay type: cell-based; settings: incubated with rat liver S-9 mix, 37° C. 20 min; circle diameter relative to the starting compound
Experimental: As an activating enzyme of metabolism, a rat liver homogenate (S-9, manufactured by Oriental Yeast Company, Japan) was used in the following composition per 1 ml (hereinafter referred to as S-9 mix). 0.1 ml of the solution of each of the cephalosporin derivatives of the invention prepared in Examples 1 to 10 at a concentration of 100 μg/ml was mixed with 0.9 ml of S-9 mix or 0.9 ml of 0.1 M phosphoric buffer solution (as a control) and the obtained mixture was incubated at 37° C. for 20 min. with shaking. Staphylococcus aureus IAM 1011 was inoculated into a Mueller-Hinton's culture medium and cultured at 37° C. for 18 hours. The culture medium was adjusted to a cell concentration of 1×10^8 per 1 ml and mixed with 50 times by volume of Mueller-Hinton's agar culture medium to obtain an agar plate. A penicillin cup of 8 mm in diameter was placed on the agar plate prepared above, and into the cup 0.1 ml of the mixture containing the cephalosporin derivative prepared above was introduced and allowed to stand at 4° C. for 2 hours, and then cultured at 37° C. for 18 hours to measure the diameter of a circle in which the proliferation of bacteria was inhibited (proliferation-inhibiting circle). In Table 4, the proliferation-inhibiting index is shown in the ratio (%) of the diameter of the proliferation-inhibiting circle obtained by using each of the cephalosporin derivatives of the invention to that obtained by using each of the starting compound in preparing each of the cephalosporin derivatives of the invention.

[5] = oral 500 mg/kg/day for two days, feces

MIC Staph. aureus [2] | MIC E. coli [3] | SMILES | Logarithmic value of the number of bacterial cells per one g of feces, L. bifidus (Lactobacillus bifidus) | Logarithmic value of the number of bacterial cells per one g of feces, Ps. aeruginosa (Pseudomonas aeruginosa) | Logarithmic value of the number of bacterial cells per one g of feces, E. coli (Escherichia coli) | change in the number of Escherichia coli as compared to that before administration (Escherichia coli; [5]) | Logarithmic value of the number of bacterial cells per one g of feces, Strept. spp. (Streptococcus spp.) | Logarithmic value of the number of bacterial cells per one g of feces, L. acidophilus [1] | change in the number of Lactobacillus acidophilus [1, 5] | Logarithmic value of the number of bacterial cells per one g of feces, Bacteroides (Bacteroides) | Proliferation-inhibiting index (%) After adding S-9 mix [4]
0.2 µg/mL (≈ 0.378 µM) | ≥ 25 µg/mL | COC(=O)c1ccc(NC(=O)C2=C(COC(C)=O)CSC3C(NC(=O)Cc4cccs4)C(=O)N23)cc1 (centres unmarked) [Example 2, N-(4-carbomethoxyphenyl)-7-(thienyl-2-acetamido)cephalosporanic acid amide] | 8.6 | < 3.0 | 6.4 |  | 6.7 | 9.1 |  | 8.1 | ++ (33-66)
≥ 12.5 µg/mL | ≥ 100 µg/mL | COC(=O)Cc1ccc(NC(=O)C2=C(COC(C)=O)CSC3C(NC(=O)Cc4cccs4)C(=O)N23)cc1 (centres unmarked) [Example 6, N-(4-carbomethoxymethylphenyl)-7-(thienyl-2-acetamido)cephalosporanic acid amide] | 8.3 | < 3.0 | 6.8 |  | 6.5 | 8.9 |  | 8.8 | +++ (66-100)
12.5 µg/mL (≈ 21.8 µM) | ≥ 100 µg/mL | CC(=O)OCC1=C(C(=O)Nc2ccc(C(=O)NCC(=O)O)cc2)N2C(=O)C(NC(=O)Cc3cccs3)C2SC1 (centres unmarked) [Example 8, N-(4-carboxymethylcarbamoylphenyl)-7-(thienyl-2-acetamido)cephalosporanic acid amide] | 8.5 | < 3.0 | 6.4 |  | 6.8 | 9.1 |  | 8.1 | ++ (33-66)
≥ 12.5 µg/mL | ≥ 100 µg/mL | COC(=O)CNC(=O)c1ccc(NC(=O)C2=C(COC(C)=O)CSC3C(NC(=O)Cc4cccs4)C(=O)N23)cc1 (centres unmarked) [Example 9, N-(4-carbomethoxymethylcarbamoylphenyl)-7-(thienyl-2-acetamido)cephalosporanic acid amide] | 8.6 | < 3.0 | 6.5 |  | 7.1 | 9.3 |  | 8.1 | +++ (66-100)

Further lines, the compound ahead of its results:

SMILES | MIC Staph. aureus [2] | MIC E. coli [3] | Logarithmic value of the number of bacterial cells per one g of feces, L. bifidus (Lactobacillus bifidus) | Logarithmic value of the number of bacterial cells per one g of feces, Ps. aeruginosa (Pseudomonas aeruginosa) | Logarithmic value of the number of bacterial cells per one g of feces, E. coli (Escherichia coli) | change in the number of Escherichia coli as compared to that before administration (Escherichia coli; [5]) | Logarithmic value of the number of bacterial cells per one g of feces, Strept. spp. (Streptococcus spp.) | Logarithmic value of the number of bacterial cells per one g of feces, L. acidophilus [1] | change in the number of Lactobacillus acidophilus [1, 5] | Logarithmic value of the number of bacterial cells per one g of feces, Bacteroides (Bacteroides) | Proliferation-inhibiting index (%) After adding S-9 mix [4]
CC(=O)OCC1=C(C(=O)O)N2C(=O)[C@@H](NC(=O)Cc3cccs3)[C@H]2SC1 [Cephalotin, cephalotin, reference compound] |  |  | 9.2 | < 3.0 | 9.9 | increased | 9.0 | 4.1 | decreased | 7.2 | 
CC(=O)OCC1=C(C(=O)Nc2ccc(O)cc2)N2C(=O)C(NC(=O)Cc3cccs3)C2SC1 (centres unmarked) [Example 1, N-(4-hydroxyphenyl)-7-(thienyl-2-acetamido)cephalosporanic acid amide] | ≥ 12.5 µg/mL | ≥ 100 µg/mL | 8.2 | < 3.0 | 6.5 |  | 6.3 | 8.9 |  | 8.7 | +++ (66-100)
CCOC(=O)c1ccc(NC(=O)C2=C(COC(C)=O)CSC3C(NC(=O)Cc4cccs4)C(=O)N23)cc1 (centres unmarked) [Example 3, N-(4-carboethoxyphenyl)-7-(thienyl-2-acetamido)cephalosporanic acid amide] | ≥ 12.5 µg/mL | ≥ 100 µg/mL | 8.3 | < 3.0 | 6.5 |  | 6.5 | 9.0 |  | 8.1 | ++ (33-66)
CCCCOC(=O)c1ccc(NC(=O)C2=C(COC(C)=O)CSC3C(NC(=O)Cc4cccs4)C(=O)N23)cc1 (centres unmarked) [Example 4, N-(4-carbo-n-butoxyphenyl)-7-(thienyl-2-acetamido)cephalosporanic acid amide] | ≥ 12.5 µg/mL | ≥ 100 µg/mL | 8.5 | < 3.0 | 6.4 |  | 6.7 | 9.1 |  | 8.1 | ++ (33-66)
CC(=O)OCC1=C(C(=O)Nc2ccc(CC(=O)O)cc2)N2C(=O)C(NC(=O)Cc3cccs3)C2SC1 (centres unmarked) [Example 5, N-(4-carboxymethylphenyl)-7-(thienyl-2-acetamido)cephalosporanic acid amide] | 1.56 µg/mL (≈ 2.95 µM) | ≥ 100 µg/mL | 8.4 | < 3.0 | 6.5 |  | 6.8 | 9.1 |  | 8.2 | +++ (66-100)
CCOC(=O)Cc1ccc(NC(=O)C2=C(COC(C)=O)CSC3C(NC(=O)Cc4cccs4)C(=O)N23)cc1 (centres unmarked) [Example 7, N-(4-carboethoxymethylphenyl)-7-(thienyl-2-acetamido)cephalosporanic acid amide] | 6.25 µg/mL (≈ 11.2 µM) | ≥ 100 µg/mL | 8.3 | < 3.0 | 6.4 |  | 6.6 | 8.9 |  | 8.8 | +++ (66-100)
